According to patent publication US7553868B2, “Thiophene carboxamides as inhibitors of the enzyme IKK-2” (AstraZeneca AB, priority 2003, dated 2009):

Tests used:
IKK-2 = biological target: T1, IKK-2 (Homo sapiens, UniProt O14920); test: IKK-2 filter kinase assay; assay type: biochemical; conditions: 1 μM ATP, 1-53 GST-IκB substrate, read-out: Inhibition of IKK-2
T1 sequence (O14920 1-756): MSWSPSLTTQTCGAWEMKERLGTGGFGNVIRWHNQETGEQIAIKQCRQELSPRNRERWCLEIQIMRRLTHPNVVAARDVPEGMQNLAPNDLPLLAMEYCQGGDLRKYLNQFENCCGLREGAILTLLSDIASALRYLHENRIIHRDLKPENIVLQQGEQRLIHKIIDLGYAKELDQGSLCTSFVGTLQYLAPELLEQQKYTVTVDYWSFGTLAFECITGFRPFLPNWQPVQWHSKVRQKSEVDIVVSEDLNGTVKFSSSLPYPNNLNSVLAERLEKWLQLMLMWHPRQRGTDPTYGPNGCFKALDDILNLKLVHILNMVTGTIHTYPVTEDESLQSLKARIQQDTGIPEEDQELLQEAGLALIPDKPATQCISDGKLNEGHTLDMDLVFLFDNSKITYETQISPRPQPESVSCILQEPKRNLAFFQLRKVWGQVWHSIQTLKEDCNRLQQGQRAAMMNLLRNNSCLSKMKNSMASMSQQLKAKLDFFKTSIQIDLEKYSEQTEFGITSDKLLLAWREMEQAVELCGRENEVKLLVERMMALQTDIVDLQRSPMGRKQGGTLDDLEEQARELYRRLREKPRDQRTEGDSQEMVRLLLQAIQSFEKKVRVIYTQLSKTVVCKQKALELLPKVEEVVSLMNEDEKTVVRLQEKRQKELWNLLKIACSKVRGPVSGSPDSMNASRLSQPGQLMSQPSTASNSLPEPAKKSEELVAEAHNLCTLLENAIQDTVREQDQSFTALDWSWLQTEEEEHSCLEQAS
Experimental: IKK-2 Filter Kinase Assay
The test compounds were dissolved to 10 mM in dimethylsulphoxide (DMSO). The compounds were then diluted 1 in 40 in kinase buffer (50 mM Tris, pH 7.4 containing 0.1 mM EGTA, 0.1 mM sodium orthovanadate and 0.1% β-mercaptoethanol). 1 in 3 serial dilutions were made from this solution with 2.5% DMSO in kinase buffer. 20 μl of compound dilution was added to wells of a 96 well plate in duplicate. 20 μl 2.5% DMSO in kinase buffer instead of compound was added to control wells (0% inhibition). […] 10 μl of a mixture of magnesium acetate, unlabelled ATP, and ^33P-labelled ATP was added to each well made such that the final concentration was 10 mM magnesium acetate, 1 μM ATP and 0.1 μCi ^33P ATP. […] The final reaction volume was 50 μl.
The kinase reactions were incubated at 21° C. for 80 minutes and the reaction stopped by precipitating the protein by the addition of an equal volume (50 μl) of 20% trichloroacetic acid (TCA). The precipitate was allowed to form for 10 minutes and then filtered onto a GF/C unifilter 96 well plate. Each filter was washed twice with approximately 1 ml 2% TCA. The filter plate was dried at 30-40° C. for 60 minutes, 20 μl scintillant was added to each well and the plate sealed and radioactivity counted on a Packard Topcount microplate scintillation counter.

Caco-2 cell monolayers = test: Compound permeability and efflux potential using Caco-2 cell monolayers; assay type: in vitro ADME, human; design: Caco-2 Assay Papp: unit not given here; conditions: 10 μM compound, pH 7.4, 120 min at 37° C.; Papp(A-B) used for absorption category
Excerpt: (§1) Assessment of Compound Permeability and Efflux Potential using CACO-2 Cell Monolayers.
(§2) Caco-2 cells are a cell line derived from human colon cancer cells. The Caco-2 cells retain many of the properties of the human gut, including tight junctions and transporter proteins (e.g. pgp transporter), and are used primarily to assess the potential of compounds to be absorbed after oral administration. In this assay protocol, transports in the apical to basolateral direction (A-B direction) as well as in the opposite direction (B-A direction) are determined to assess both permeability and efflux potentials of the test compounds.
(§3) Cells are seeded at a density of 100,000 cells/well onto 1 μm filters within each well of 24-well plates (Beckton-Dickinson, UK) and grown until an intact monolayer of the cells is formed across each well (14 days).
(§4) When ready for use the intactness of the monolayers is assessed using measurement of the Trans-Epithelial Resistance (TEER) within each well. If TEERs are acceptable, each test compound is added to pH 7.4 buffer to a concentration of 10 μM in either the upper (Apical; A) or lower (Basolateral; B) chambers of the individual wells of the 24-well plates in duplicate, resulting in replicate measurements of the permeability of each compound through the monolayers in both the A-B and B-A directions. Four reference compounds are incubated alongside test compounds for quality control purposes (low, medium and high permeability plus one known efflux substrate).
(§5) After mixing, an aliquot of the donor chamber is taken immediately for analysis (TO). The plates are then incubated for 120 min at 37° C., after which a further aliquot is taken from the donor chamber (used to assess recovery over the duration of the experiment), while a similar aliquot is taken from the recipient chamber at this time (T120 sample).
(§6) All sample manipulations are undertaken on a Tecan Genesis RS200 robot.
(§7) All samples are analysed using LC-electrospray MS (both + and − mode), and peak areas used to quantify each test agent.
(§8) From the data obtained the rate of transfer (Papp) of each compound across the monolayer is calculated in either the A-B or B-A directions. From the Papp(A-B) data, the potential human absorption is categorised as LOW (Papp<=[…].cm^2.sec^−1), PARTIAL (Papp>0.5<=2.9×10^6 cm^2.sec^−1) or HIGH (Papp>2.9×10^6.cm^2.sec^−1), while from the Papp(B-A)/Papp(A-B) ratio, the potential for efflux of the test compound is assessed, where a ratio≧5 is categorised as HIGH, and <5 is categorised as LOW.

[1] = as above; assay type: in vitro ADME, human; design: Caco-2 Assay Papp: unit not given here; conditions: human, Caco-2; 10 μM compound, pH 7.4, 120 min at 37° C.; efflux ratio; read-out: Caco-2 Assay Papp (B-A)/Papp(A-B) Ratio
Excerpt: as §1, §2, §3, §4, §5, §6, §7, §8

| Compound | IC50 (IKK-2) [nM] | Caco-2 Assay Papp (Caco-2 cell monolayers) | efflux ratio at 120 min, 10 μM [1] |
| --- | --- | --- | --- |
| NC(=O)Nc1sc(-c2ccccc2OC2CCN(Cc3ccccc3)C2)cc1C(N)=O (stereo not drawn) [Example 7, 2-[(Aminocarbonyl)amino]-5-[2-{[1-benzylpyrrolidin-3-yl]oxy}phenyl]thiophene-3-carboxamide] | 40 | 15.7 | 1.07 |
| NC(=O)Nc1cc(-c2ccccc2OCCN2Cc3ccccc3C2)sc1C(N)=O [Example 13, 3-[(Aminocarbonyl)amino]-5-[2-{2-(1,3-dihydro-2H-isoindol-2-yl)ethoxy}phenyl]thiophene-2-carboxamide] | 1430 | 23.6 | 1.26 |
| NC(=O)Nc1sc(-c2ccccc2OCCN2Cc3ccccc3C2)cc1C(N)=O [Example 5, 2-[(Aminocarbonyl)amino]-5-[2-{2-(1,3-dihydro-2H-isoindol-2-yl)ethoxy}phenyl]thiophene-3-carboxamide] | 150 | 14.3 | 0.66 |
| COCCN1CCC(Oc2ccccc2-c2cc(C(N)=O)c(NC(N)=O)s2)C1 (stereo not drawn) [2-[(Aminocarbonyl)amino]-5-(2-{[1-(2-methoxyethyl)-pyrrolidin-3-yl]oxy}phenyl)-3-thiophenecarboxamide, reference compound] | 30 | 1.86 | 5.88 |
| CN1CCC(Oc2ccccc2-c2cc(C(N)=O)c(NC(N)=O)s2)C1 (stereo not drawn) [2-[(Aminocarbonyl)amino]-5-(2-[{1-methylpyrrolidin-3-yl}oxy]phenyl)-3-thiophenecarboxamide, reference compound] | 10 | 2.19 | 8.14 |
